Laboratory results from paper PMC9701690, “Teloxantron inhibits the processivity of telomerase with preferential DNA damage on telomeres” (Cell Death & Disease, 2022).

Target: T1, hTERT (catalytic subunit of human telomerase) (Homo sapiens, UniProt O14746)
T1 construct: gene TERT; with telomerase ribonucleoprotein (TERC RNA and accessory proteins)
Experiment: test-tube TRAP assay
Assay type: biochemical

T1 sequence (O14746 whole entry): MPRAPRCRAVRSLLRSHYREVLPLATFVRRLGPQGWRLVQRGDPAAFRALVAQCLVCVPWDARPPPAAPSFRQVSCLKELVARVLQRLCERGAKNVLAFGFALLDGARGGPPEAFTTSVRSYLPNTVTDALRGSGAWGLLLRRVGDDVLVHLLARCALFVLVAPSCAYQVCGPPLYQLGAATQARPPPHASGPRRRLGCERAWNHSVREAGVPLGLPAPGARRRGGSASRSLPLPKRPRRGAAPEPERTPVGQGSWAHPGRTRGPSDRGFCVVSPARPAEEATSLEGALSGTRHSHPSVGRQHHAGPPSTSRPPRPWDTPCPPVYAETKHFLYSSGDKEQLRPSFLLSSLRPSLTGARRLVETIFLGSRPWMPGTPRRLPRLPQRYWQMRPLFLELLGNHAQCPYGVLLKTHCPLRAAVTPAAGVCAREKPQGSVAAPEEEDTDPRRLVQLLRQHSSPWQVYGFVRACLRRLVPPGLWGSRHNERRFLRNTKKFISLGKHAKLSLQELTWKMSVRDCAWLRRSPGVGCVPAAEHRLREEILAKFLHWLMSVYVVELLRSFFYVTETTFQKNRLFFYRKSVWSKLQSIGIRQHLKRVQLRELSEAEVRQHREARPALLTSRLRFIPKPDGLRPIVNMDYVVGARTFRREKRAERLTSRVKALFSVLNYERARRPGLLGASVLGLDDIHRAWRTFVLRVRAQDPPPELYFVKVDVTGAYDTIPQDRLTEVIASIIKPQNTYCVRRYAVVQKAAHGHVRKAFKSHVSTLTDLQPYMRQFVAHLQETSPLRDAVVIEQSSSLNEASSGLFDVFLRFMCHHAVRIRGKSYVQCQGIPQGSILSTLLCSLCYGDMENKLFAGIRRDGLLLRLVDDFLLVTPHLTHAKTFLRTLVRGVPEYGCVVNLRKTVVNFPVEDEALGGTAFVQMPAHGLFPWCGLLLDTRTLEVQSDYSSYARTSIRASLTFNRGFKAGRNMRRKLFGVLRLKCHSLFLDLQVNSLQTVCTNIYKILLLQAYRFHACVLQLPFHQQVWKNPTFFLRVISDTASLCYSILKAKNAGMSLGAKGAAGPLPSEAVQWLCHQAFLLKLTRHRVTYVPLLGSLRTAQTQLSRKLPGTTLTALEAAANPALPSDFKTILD

C/C(=C\C(=O)Nc1ccccc1C(=O)O)c1ccc2ccccc2c1 [BIBR1532]
IC50: 64.1 ± 2.53 µM
